Test results reported in ChEMBL document CHEMBL3137667, “[Drug-induced liver injury; fourteenth updated edition of the bibliographic database of liver injuries and related drugs]” (Gastroenterol Clin Biol, 2004).

Assays:
[1] = human
[2] = human; remark: listed apart in the source
[3] = human; remark: listed apart in the source
[4] = Highest frequency of acute liver toxicity observed during clinical trials, expressed as a percentage. [column '% AIGUE' in source]; conditions: human
[5] = human; remark: listed apart in the source
[6] = human, serum
[7] = human; remark: listed apart in the source
[8] = human, serum; remark: listed apart in the source
[9] = human; remark: listed apart in the source
[10] = Highest frequency of moderate liver toxicity observed during clinical trials, expressed as a percentage. [column '% BIOL' in source]; conditions: human
[11] = Presence of at least one case with successful reintroduction. [column 'REINT' in source]; conditions: human
[12] = human, serum, 4383 h
[13] = human; remark: listed apart in the source
[14] = human; remark: listed apart in the source
[15] = Comments (NB not yet translated). [column 'COMMENTAIRES' in source]; conditions: human
[16] = human; remark: listed apart in the source
[17] = Times to onset, minimal and maximal, observed in the indexed observations. [column 'DELAI' in source]; conditions: human
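Wherever Hepatotoxicity (association with vascular disease) is given: count of indexed literature references reporting vascular liver injury in humans, e.g. peliosis hepatitis, hepatic veno-occlusive disease or Budd-Chiari syndrome.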
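Wherever Hepatotoxicity (benign tumour) is given: value is a count of indexed literature references citing a benign tumour confirmed by histopathology.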
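Wherever Hepatotoxicity (choleostasis) is given: human cholestatic liver injury, shown by histopathology or by peak ALT or AST elevation over alkaline phosphatase ratio below 2, value counts indexed literature reports.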
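Wherever Hepatotoxicity (chronic liver disease) is given: chronic liver injury confirmed by histopathology or persistently raised serum aminotransferase activity beyond 6 months, value given as the count of indexed literature references.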
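Wherever Hepatotoxicity (cirrhosis) is given: value is a count of indexed literature references reporting cirrhosis confirmed by histopathology.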
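Wherever Hepatotoxicity (cytolytic) is given: human cytolytic liver injury, shown by histopathology or by a ratio above 5 of peak ALT or AST elevation to alkaline phosphatase elevation, value counts indexed references.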
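Wherever Hepatotoxicity (granulomatous hepatitis) is given: value is a count of indexed literature references reporting granulomatous liver disease confirmed by histopathology.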
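Wherever Hepatotoxicity (malignant tumour) is given: malignant tumour confirmed by histopathology, value gives the count of indexed literature references reporting it.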
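Wherever Hepatotoxicity (severe hepatitis) is given: human clinical data: severe hepatitis, meaning potentially life-threatening liver failure or clinically observed cases, the value counts how many indexed literature references report it.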
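Wherever Hepatotoxicity (steatosis) is given: steatosis confirmed by histopathology, value is the count of indexed references.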

Row | SMILES | Hepatotoxicity (severe hepatitis) [1] | Hepatotoxicity (granulomatous hepatitis) [2] | Hepatotoxicity (cirrhosis) [3] | Hepatotoxicity (acute) [4] | Hepatotoxicity (malignant tumour) [5] | Hepatotoxicity (acute) [6] | Hepatotoxicity (cytolytic) [7] | Hepatotoxicity (moderate) [8] | Hepatotoxicity (benign tumour) [9] | Hepatotoxicity (moderate) [10] | Hepatotoxicity (successful reintroduction) [11] | Hepatotoxicity (chronic liver disease) [12] | Hepatotoxicity (association with vascular disease) [13] | Hepatotoxicity (steatosis) [14] | Hepatotoxicity (comment) [15] | Hepatotoxicity (choleostasis) [16] | Hepatotoxicity (time to onset) [17] | Hepatotoxicity (severe hepatitis) ([1]; Liver) | Hepatotoxicity (acute) ([4]; Liver) | Hepatotoxicity (moderate) ([10]; Liver) | also measured
1 | CC(CCc1ccccc1)NCC(O)c1ccc(O)c(C(N)=O)c1 (centres undefined) [LABETALOL] | 4 | 0 | 0 | 0.9% | 0 | 6 | 6 | 5 | 0 | 20.5% | yes | 0 | 0 | 0 | AC_ANTI-N | 0 | 3 weeks - 6 months | – | – | – | –
2 | Nc1ccn([C@@H]2CS[C@H](CO)O2)c(=O)n1 [LAMIVUDINE] | – | 0 | 0 | – | 0 | 30 | 26 | 15 | 0 | – | yes | 1 | 0 | 13 | REACTIVATION_HVB REACTIVATION_HVC | 1 | 10 days - 3 years | 15 | 12.5% | 44% | –
3 | c1ccc([C@H]2CN3CCSC3=N2)cc1 [LEVAMISOLE] | – | – | 0 | – | 0 | 0 | – | 11 | 0 | – | yes | 0 | 0 | 6 | I/FLUOROURACIL | – | 1 month - 1 year | 0 | 0% | 61.2% | Hepatotoxicity (granulomatous hepatitis) ([2]; Liver): 0; Hepatotoxicity (cytolytic) ([7]; Liver): 0; Hepatotoxicity (choleostasis) ([16]; Liver): 0
4 | C[C@]12CCC(=O)C=C1CC[C@@H]1[C@@H]2CC[C@@]2(C)[C@H]1CC[C@]2(C)O [METHYLTESTOSTERONE] | 1 | 0 | 2 | 0% | 10 | 30 | 2 | 4 | 6 | 32% | yes | 0 | 4 | 0 | ANGIOSARCOME CHOLESTASE_PROLONGEE CHOLANGITE #CBP PELIOSE | 21 | 1 week - 24 years | – | – | – | –
5 | COCCc1ccc(OCC(O)CNC(C)C)cc1 (centres undefined) [METOPROLOL] | 0 | 0 | 0 | 0% | 0 | 1 | 1 | 3 | 0 | 32% | yes | 0 | 0 | 0 | ENCEPHALOPATHIE | 0 | 5 days - 17 days | – | – | – | –
6 | CN1Cc2c(N)cccc2C(c2ccccc2)C1 (centres undefined) [NOMIFENSINE] | 0 | 5 | 0 | 0% | 0 | 11 | 8 | 6 | 0 | 0% | yes | 0 | 0 | 0 | RC/MIANSERINE | 6 | 3 days - 3 months | – | – | – | –
7 | CCN1CCN(C(=O)N[C@@H](C(=O)N[C@@H]2C(=O)N3[C@@H]2SC(C)(C)[C@@H]3C(=O)O)c2ccccc2)C(=O)C1=O [PIPERACILLIN] | 0 | 0 | 0 | 0.2% | 0 | 4 | 1 | 14 | 0 | 25.6% | yes | 0 | 0 | 0 | CHOLANGITE | 3 | 2 weeks | – | – | – | –
8 | CC[C@H](C)C(=O)O[C@H]1C[C@H](O)C=C2C=C[C@H](C)[C@H](CC[C@@H](O)C[C@@H](O)CC(=O)O)[C@H]21 [PRAVASTATIN] | – | 0 | 0 | – | 0 | 7 | 3 | 50 | 0 | – | yes | 0 | 0 | 1 | AC_ANTI-N/-MF | 3 | 1 week - 20 weeks | 0 | 1.1% | 22.5% | –
9 | Cc1ncc(CSSCc2cnc(C)c(O)c2CO)c(CO)c1O [PYRITINOL] | 1 | 0 | 0 | 0% | 0 | 6 | 1 | 1 | 0 | 1.4% | yes | 0 | 0 | 1 | CHOLESTASE_PROLONGEE | 4 | 1 day - 2 months | – | – | – | –
10 | CCN(CC)CCCC(C)Nc1c2ccc(Cl)cc2nc2ccc(OC)cc12 (centres undefined) [QUINACRINE] | 1 | 0 | 0 | 0.1% | 0 | 4 | 2 | 2 | 0 | 0% | yes | 0 | 0 | 0 | CHOLANGITE | 1 | 1 week - 4 months | – | – | – | –
11 | CN[C@H]1CC[C@@H](c2ccc(Cl)c(Cl)c2)c2ccccc21 [SERTRALINE] | – | – | 0 | – | 0 | 8 | – | 4 | 0 | – | yes | 0 | 0 | 0 | CHOLANGIOLITE | – | 3 days - 5 months | 1 | 0% | 0.8% | Hepatotoxicity (granulomatous hepatitis) ([2]; Liver): 0; Hepatotoxicity (cytolytic) ([7]; Liver): 5; Hepatotoxicity (choleostasis) ([16]; Liver): 4
12 | CC(C(=O)O)c1ccc(C(=O)c2ccccc2)s1 (centres undefined) [TIAPROFENIC ACID] | 0 | 0 | 0 | 0% | 0 | 3 | 2 | 1 | 0 | 3.8% | yes | 0 | 0 | 0 | RC/DICLOFENAC | 2 | 3 weeks - 2 months | – | – | – | –
